No end group written: not given here.
How the values were obtained:
cow = conditions: cited from earlier work
lactating dairy cows = assay: Ovulation response to GnRH injection in lactating dairy cows; type: in vivo, bovine
From the text: The sequential hormone treatments function in the following manner. The first injection of GnRH (or the LH or hCG if used) will cause ovulation of any large functional follicles that are present on the ovaries. Experimental work has shown that a follicle will ovulate in over 80% of lactating dairy cows that are given this GnRH injection. This ensures that a Corpus Luteum is present on the ovary to inhibit animals from coming into heat during the following week. This injection causes growth of a new wave of follicles due to secretion of follicle stimulating hormone (FSH) from the pituitary gland. Thus, the first injection of GnRH assures the presence of a corpus luteum and synchronizes the growth of a new follicular wave. The follicle that will eventually ovulate will come from this new wave of follicles.
As with other protocols, such as disclosed in the aforementioned patent to Donaldson, the injection of PGF2a is designed to regress any corpora lutea that are present on the ovary. This allows the new dominant follicle to proceed toward ovulation. Usually about 11/2 to 2 days later, just before two animals would begin to show signs of heat, the cows are given a second injection of GnRH. At this time the new dominant follicle should be at a large ovulatory size and this injection will cause the large follicle to ovulate. However, as indicated previously, the second dose of GnRH can be given at the same time as the PGF2a injection and this can be done where it is desirable to enhance management efficiency; that is by combining the PGF2a and GnRH injection, one step in the treatment protocol is eliminated. The cows will ovulate at 1-2 days, usually 24-32 hours after this second injection of GnRH. Thus, instead of having animals show heat over a 7 day period of time, ovulation can be synchronized to an 8 hour period of time. This concise synchronization allows for effective timed insemination.

cows = assay: Artificial insemination concomitant with second GnRH dose (preliminary work); type: in vivo, bovine; conditions: insemination near or at the same time as second GnRH injection
Description: While the normal practice will be to inseminate the cows about 16-20 hours after the second GnRH injection, insemination can occur any time ranging from the time of the GnRH injection or a day before or up to about a day later. Ovulation need not occur before insemination since the sperm can survive in the reproductive track for up to one or even two days after insemination. Thus insemination can safely take place one day before the GnRH injection. Preliminary work has shown that in some cases there may be some advantages to carrying out the artificial insemination concomitantly with the administration of the second dose of GnRH or within eight hours either before or after the second dose of GnRH.

[1] = second GnRH injection after PGF2a

Row | Molecule | time to heat after PGF2a, large dominant follicle present (cow; PGF2a given when a large dominant follicle is present) [days] | time for follicle to grow large enough to induce heat after PGF2a, new follicular wave just beginning (cow; PGF2a given when a new follicular wave is just beginning) [days] | period of time to which ovulation is synchronized (lactating dairy cows; after second GnRH injection) [h] | lactating dairy cows in which a follicle will ovulate after the first GnRH injection (lactating dairy cows; first injection of GnRH, any stage of estrous cycle) | time of ovulation after second injection of GnRH (lactating dairy cows; [1]) [days] | usual time of ovulation after second injection of GnRH (lactating dairy cows; [1]) [h] | birth rate of female calves (cows) | spontaneous abortion rate (cows)
1 | CCCCC[C@H](O)/C=C/[C@@H]1[C@@H](C/C=C\CCCC(=O)O)[C@@H](O)C[C@H]1O [PGF2a, prostaglandin F2α] | 2 to 3 | 6 to 7 | – | – | – | – | – | –
2 | gonadotropin releasing hormone (QHWSYGLRPG; ends and bridges not checked; UniProt P01148 24-33, looked up) [GnRH] | – | – | 8 | over 80% | 1 to 2 | 24 to 32 | enhancement in the birth rate of female calves | somewhat lower spontaneous abortion rate

Source: US5589457A, “Process for the synchronization of ovulation” (Ausa International, Inc., priority 1995, dated 1996)
